Laboratory results reported in US5968910A, “Compositions containing two or three inhibitors of different HIV reverse transcriptases” (priority 1994, dated 1999).
Converted amounts (≈) assume the structure as drawn. Read-outs that look alike come from different tables or passages of the source.

Legend:
Assay type in all cases: cell-based
[1] = system: HIV-1(IIIB) (WT); experiment: microbe, parasite or virus in culture; settings: Human immunodeficiency virus 1, IIIB, CCRF-CEM
In short: (§1)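 Syncytium formation read out after 4 days at 37° C. Cultures: CEM cells, 250,000/ml, infected at 100 50% cell culture infective doses/ml and added to compound dilutions.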

[2] = system: HIV-1/I(0.1) 103-Asn; experiment: Sensitivity of mutant HIV-1 strain in CEM cell cultures; settings: Human immunodeficiency virus 1, CCRF-CEM; Table 5; read-out: EC50
In short: as §1

[3] = system: HIV-1/II(0.1) 100-Ile; experiment: as above; settings: Human immunodeficiency virus 1, CCRF-CEM; Table 5; read-out: EC50
In short: as §1

[4] = system: HIV-1/III(0.1) 103-Asn; experiment: as above; settings: Human immunodeficiency virus 1, CCRF-CEM; Table 5; read-out: EC50
In short: as §1

[5] = system: HIV-1/IV(0.1) 103-Thr; experiment: as above; settings: Human immunodeficiency virus 1, CCRF-CEM; Table 5; read-out: EC50
In short: as §1

[6] = system: HIV-1/Nev (106-Ala); experiment: as above; settings: Human immunodeficiency virus 1, CCRF-CEM; CEM cells, Table 1; read-out: 50% Effective Concentration
In short: as §1

[7] = system: HIV-1/Pyr (181-Cys); experiment: as above; settings: Human immunodeficiency virus 1, CCRF-CEM; CEM cells, Table 1; read-out: 50% Effective Concentration
In short: as §1

[8] = system: HIV-1/TIBO R82150 (100-Ile); experiment: as above; settings: Human immunodeficiency virus 1, CCRF-CEM; CEM cells, Table 1; read-out: 50% Effective Concentration
In short: as §1

[9] = system: HIV-1/TIBO R82913 (103-Asn); experiment: as above; settings: Human immunodeficiency virus 1, CCRF-CEM; CEM cells, Table 1; read-out: 50% Effective Concentration
In short: as §1

[10] = system: HIV-1/TSAO-m^3 T (138-Lys); experiment: as above; settings: Human immunodeficiency virus 1, CCRF-CEM; CEM cells, Table 1; read-out: 50% Effective Concentration
In short: as §1

[11] = system: HIV-1/V(0.1) 101-Ile + 141-Glu; experiment: as above; settings: Human immunodeficiency virus 1, CCRF-CEM; Table 5; read-out: EC50
In short: as §1

[12] = system: HIV-1/V(0.5) 103-Asn; experiment: as above; settings: Human immunodeficiency virus 1, CCRF-CEM; Table 5; read-out: EC50
In short: as §1

[13] = system: HIV-1(IIIB); experiment: Knock-out concentrations: breakthrough of HIV-1(IIIB)-induced cytopathicity in CEM cell cultures; settings: for activity at 0.1 µg/mL / activity at 0.5 µg/mL / activity at 2.5 µg/mL: Human immunodeficiency virus 1, IIIB, CCRF-CEM, read-out: HIV-1-induced cytopathicity in cell culture; for activity at 0.1 µg/mL: 0.1 μg/ml; for activity at 0.5 µg/mL: 0.5 μg/ml; for activity at 2.5 µg/mL: 2.5 μg/ml
In short: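 CEM cells in RPMI 1640 with 10% FBS infected with HIV-1(IIIB) at ~1000× CCID50, subcultured every 3–4 days into fresh uninfected cells with drug held constant for 10 subcultivations (35 days), then ≥5 drug-free passages. Breakthrough scored by syncytium formation. Combinations used the two lowest single-drug starting concentrations.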

[14] = 936 h, day 39 post infection, compound absent from day 35
[15] = 1008 h, day 42 post infection, compound absent from day 35
[16] = 1104 h, day 46 post infection, compound absent from day 35
[17] = 1176 h, day 49 post infection, compound absent from day 35
[18] = 1272 h, day 53 post infection, compound absent from day 35

Cc1occc1C(=S)Nc1ccc(Cl)c(C(=O)OCC(C)C)c1 [Compound II]
EC50 ([1]; CEM cells, Table 1, read-out: 50% Effective Concentration): 0.01 µg/mL (≈ 0.0284 µM) | EC50 ([1]; HIV-1 (III8), Table 5, read-out: EC50): 0.007 µg/mL (≈ 0.0199 µM) | IC50 ([1]; range stated for Compounds I-V together, read-out: 50% inhibitory concentration, HIV-1(IIIB) replication in CEM cells): 0.004 to 0.05 µg/mL (≈ 0.0114 to 0.142 µM) | EC50 [2]: 0.15 µg/mL (≈ 0.426 µM) | EC50 [3]: 0.5 µg/mL (≈ 1.42 µM) | EC50 [4]: 0.16 µg/mL (≈ 0.455 µM) | EC50 [5]: 0.4 µg/mL (≈ 1.14 µM) | EC50 [6]: 0.075 µg/mL (≈ 0.213 µM) | EC50 [7]: 0.07 µg/mL (≈ 0.199 µM) | EC50 [8]: 0.19 µg/mL (≈ 0.54 µM) | EC50 [9]: 0.45 µg/mL (≈ 1.28 µM) | EC50 [10]: 0.06 µg/mL (≈ 0.171 µM) | EC50 [11]: 0.06 µg/mL (≈ 0.171 µM) | EC50 [12]: 0.8 µg/mL (≈ 2.27 µM) | prevention of virus breakthrough, fold more efficient than BHAP [13]: at least 5 fold | prevention of virus breakthrough, fold more efficient than nevirapine [13]: ≥ 25 fold | activity at 0.1 µg/mL ([13]; 96 h, day 4 post infection): 0% | activity at 0.5 µg/mL ([13]; 96 h, day 4 post infection): 0% | activity at 2.5 µg/mL ([13]; 96 h, day 4 post infection): 0% | activity at 0.1 µg/mL ([13]; 192 h, day 8 post infection): 0% | activity at 0.5 µg/mL ([13]; 192 h, day 8 post infection): 0% | activity at 2.5 µg/mL ([13]; 192 h, day 8 post infection): 0% | activity at 0.1 µg/mL ([13]; 264 h, day 11 post infection): 0% | activity at 0.5 µg/mL ([13]; 264 h, day 11 post infection): 0% | activity at 2.5 µg/mL ([13]; 264 h, day 11 post infection): 0% | activity at 0.1 µg/mL ([13]; 336 h, day 14 post infection): 12.5% | activity at 0.5 µg/mL ([13]; 336 h, day 14 post infection): 0% | activity at 2.5 µg/mL ([13]; 336 h, day 14 post infection): 0% | activity at 0.1 µg/mL ([13]; 408 h, day 17 post infection): 50% | activity at 0.5 µg/mL ([13]; 408 h, day 17 post infection): 0% | activity at 2.5 µg/mL ([13]; 408 h, day 17 post infection): 0% | activity at 0.1 µg/mL ([13]; 504 h, day 21 post infection): 100% | activity at 0.5 µg/mL ([13]; 504 h, day 21 post infection): 0% | activity at 2.5 µg/mL ([13]; 504 h, day 21 post infection): 0% | activity at 0.1 µg/mL ([13]; 600 h, day 25 post infection): 100% | activity at 0.5 µg/mL ([13]; 600 h, day 25 post infection): 0% | activity at 2.5 µg/mL ([13]; 600 h, day 25 post infection): 0% | activity at 0.1 µg/mL ([13]; 672 h, day 28 post infection): 100% | activity at 0.5 µg/mL ([13]; 672 h, day 28 post infection): 0% | activity at 2.5 µg/mL ([13]; 672 h, day 28 post infection): 0% | activity at 0.1 µg/mL ([13]; 768 h, day 32 post infection): 100% | activity at 0.5 µg/mL ([13]; 768 h, day 32 post infection): 0% | activity at 2.5 µg/mL ([13]; 768 h, day 32 post infection): 0% | activity at 0.1 µg/mL ([13]; 840 h, day 35 post infection): 100% | activity at 0.5 µg/mL ([13]; 840 h, day 35 post infection): 0% | activity at 2.5 µg/mL ([13]; 840 h, day 35 post infection): 0% | activity at 0.1 µg/mL [13, 14]: 100% | activity at 0.5 µg/mL [13, 14]: 0% | activity at 2.5 µg/mL [13, 14]: 0% | activity at 0.1 µg/mL [13, 15]: 100% | activity at 0.5 µg/mL [13, 15]: 0% | activity at 2.5 µg/mL [13, 15]: 0% | activity at 0.1 µg/mL [13, 16]: 100% | activity at 0.5 µg/mL [13, 16]: 0% | activity at 2.5 µg/mL [13, 16]: 0% | activity at 0.1 µg/mL [13, 17]: 100% | activity at 0.5 µg/mL [13, 17]: 0% | activity at 2.5 µg/mL [13, 17]: 0% | activity at 0.1 µg/mL [13, 18]: 100% | activity at 0.5 µg/mL [13, 18]: 0% | activity at 2.5 µg/mL [13, 18]: 0% | concentration at which virus emerged (virus breakthrough) ([13]; tested at 0.1, 0.5 and 2.5 μg/ml, 35 days): 0.1 µg/mL
